Read-outs that look alike come from different tables or passages of the source.
Columns and labels:
[1] = tested on: MCF-7 cells; test: MTT cell viability assay, MCF-7; format: cell-based, human; conditions: for IC50: Homo sapiens, read-out: IC50 MCF-7
Protocol: (§1) Absorbance readings were measured by a spectrophotometer. Cell viability was normalized to control (vehicle only).

[2] = tested on: MDA-MB-231 cells; test: MTT cell viability assay, MDA-MB-231; format: cell-based, human; conditions: for IC50: Homo sapiens, read-out: IC50 MDA-MB-231
Protocol: as §1

[3] = tested on: Fibroblasts (primary culture from healthy human dental pulp)
Protocol: MCF-7 cell line and primary culture of connective tissue cells were provided by the Laboratory of Morphology, University of Brasília (Brasília, BR). MDA-MB-231 cells were purchased from Rio de Janeiro Cell Bank (RJCB - Rio de Janeiro, BR). Cell line characterization and authentication was conducted by RJCB using short tandem repeat profiling. Primary culture cells were taken from healthy human dental pulp predominantly consisting of fibroblasts and were used as normal control cells. MCF-7 cells and fibroblasts were grown in complete DMEM and maintained at 37°C with 5% CO2. MDA-MB-231 cells were grown in Leibovitz L15 medium at 37°C without CO2. Culture media were supplemented with 10% fetal bovine serum and 25 μg/mL of gentamicin.
Cytotoxicity was determined using 3-(4,5-dimethylthiazol-2-yl)-2,5-diphenylterazolium bromide (MTT) according to the manufacturer’s instructions. Absorbance readings were measured by a spectrophotometer. Cell viability was normalized to control (vehicle only).

[4] = tested on: MCF-7 cells; test: α-tubulin immunostaining, spindle formation; format: cell-based, human; conditions: for Monoastral Spindle (%) 24 h / Bipolar Spindle (%) 24 h / Bipolar Spindle (%) 48 h / Monoastral Spindle (%) 48 h: n = 300 dividing cells; for Monoastral Spindle (%) 24 h: monastrol 0.1 mM; for Bipolar Spindle (%) 24 h / Bipolar Spindle (%) 48 h / Monoastral Spindle (%) 48 h: concentrations as E14; for Bipolar Spindle (%) 48 h / Monoastral Spindle (%) 48 h: MCF-7, 48 h
Protocol: Aliquots of 7 × 10^4 MCF-7 cells were seeded onto 12 mm round glass coverslips placed in the base of each well of a 24-well plate. After adhesion, cells were treated for 24 and 48 h with the pre-selected compounds at their maximum non-cytotoxic concentrations to normal cells or incubated with culture medium only for the same duration (negative control). Cells were washed with PBS, fixed with 3.7% formaldehyde, permeabilized with 0.1% Triton X-100 and blocked in PBS supplemented with 1% skimmed milk, 2.5% bovine serum albumin (BSA) and 8% fetal bovine serum (FBS) at room temperature. Cells were incubated overnight with mouse anti-α-tubulin antibody (1:500) at 4°C, followed by incubation with a secondary antibody: Alexa Fluor 488 rabbit anti-mouse IgG (1:400), for 1 hour at 37°C. Nuclei were stained with 300 nM DAPI. The coverslips were mounted with ProLong Gold Antifade and specimens observed under a laser scanning confocal microscope.
Table S1. Quantification of monopolar spindles occurred as a result of treatment with DHPM derivatives. MCF-7 control cells or cells treated for 24 or 48 h with 4m (1 mM), […]
antibody. The percentage of dividing cells showing presence of monoastral and bipolar spinles formation determined (n = 300).
Experimental Group Monoastral Spindle (%) Bipolar Spindle (%)

[5] = tested on: MCF-7 cells; test: CD44+/CD24- expression analysis, MCF-7; format: cell-based, human; conditions: 24 h; for CD44-/CD24- subpopulation, MCF-7 (mean ± SEM): 4m 1.0 mM, 4bt 0.8 mM, 4p 0.4 mM, 4bc 1.0 mM, 4x 0.8 mM, monastrol 1.0 mM; for CD44+/CD24+ subpopulation, MCF-7 (mean ± SEM) / CD44-/CD24+ subpopulation, MCF-7 (mean ± SEM) / CD44+/CD24- subpopulation, MCF-7 (mean ± SEM): concentrations as E28; for CD44+/CD24- subpopulation, MCF-7 (mean ± SEM): control 0.38 ± 0.18
Protocol: (§2) For proliferation assays, cells were treated with IC50 concentrations of each compound. Adherent and floating cells were harvested at the same tube and pelleted by centrifugation at 300 g for 5 minutes and stained. Data acquisition of these two fractions put together was performed on a FACSCalibur flow cytometer using CellQuest software and analysed using the FloJo Software. Expression level of CD44 and CD24 in treated and control MCF-7 or MDA-MB-231 cells was measured after 24 h of treatment.

[6] = tested on: MDA-MB-231 cells; test: CD44+/CD24- expression analysis, MDA-MB-231; format: cell-based, human; conditions: 24 h; for CD44-/CD24- subpopulation, MDA-MB-231 (mean ± SEM): 4m 1.0 mM, 4bt 0.8 mM, 4p 0.4 mM, 4bc 1.0 mM, 4x 0.8 mM, monastrol 1.0 mM; for CD44+/CD24+ subpopulation, MDA-MB-231 (mean ± SEM): control 1.507 ± 0.47
Protocol: as §2

[7] = tested on: MCF-7 cells; test: Apoptosis and necrosis assay (Annexin-V/PI flow cytometry), MCF-7; format: cell-based, human; conditions: 72 h; 4m 1.0 mM, 4bt 0.8 mM, 4p 0.4 mM, 4bc 1.0 mM, 4x 0.8 mM
Protocol: (§3) For proliferation assays, cells were treated with IC50 concentrations of each compound. Adherent and floating cells were harvested at the same tube and pelleted by centrifugation at 300 g for 5 minutes and stained. Data acquisition of these two fractions put together was performed on a FACSCalibur flow cytometer using CellQuest software and analysed using the FloJo Software. Untreated control cells and DHPMs-treated for 72 h cell samples were stained with Annexin-V-FITC or Annexin-V-Alexa Fluor® 680 and propidium iodide according to the manufacturer’s instructions.

[8] = tested on: MDA-MB-231 cells; test: Apoptosis and necrosis assay (Annexin-V/PI flow cytometry), MDA-MB-231; format: cell-based, human; conditions: 72 h; 4m 1.0 mM, 4bt 0.8 mM, 4p 0.4 mM, 4bc 1.0 mM, 4x 0.8 mM
Protocol: as §3

[9] = tested on: MCF-7 cells; test: Cell cycle analysis (PI), MCF-7; format: cell-based, human; conditions: 4m 1 mM, 4bt 0.8 mM, 4p 0.4 mM, 4bc 1.0 mM, 4x 0.8 mM
Protocol: For proliferation assays, cells were treated with IC50 concentrations of each compound. Adherent and floating cells were harvested at the same tube and pelleted by centrifugation at 300 g for 5 minutes and stained. Data acquisition of these two fractions put together was performed on a FACSCalibur flow cytometer using CellQuest software and analysed using the FloJo Software. Control and DHPM-treated cells were harvested at 24, 48 and 72 h, resuspended in ice-cold PBS and fixed with 70% ethanol on ice. Cells were then washed with PBS, harvested and incubated with propidium iodide solution (0.1% Triton X-100, 10 μg/mL propidium iodide, 100 μg/mL DNase free RNase) for 10 min at 37°C. For analysis of cell populations in each cell cycle phase, the sub-G1 picks were excluded and the plots were generated by cell cycle platform data analysis by the FlowJo Software.

[10] = tested on: MCF-7 cells; test: Morphological alterations under inverted light microscope, MCF-7; format: cell-based, human; conditions: 72 h, maximum non-cytotoxic concentration to normal cells
Protocol: Figure 2 DHPM derivatives cause severe morphological alterations on breast cancer cells. MCF-7 and MDA-MB-231 cells were treated with the maximum non-cytotoxic concentration to normal cells for 72 h and morphological alterations analyzed under an inverted light microscope. Cells with elongated morphology, adherent to the surface and normal size are shown by arrows. Cells with size reduction, absence of focal adhesion points, rounded morphology and detached from the surface where they had been seeded are shown by arrowheads.

[11] = tested on: HUVEC cells; test: HUVEC tube formation assay; format: cell-based, human; conditions: 11 h; 30 μM, IC50 or 300 μM, mainly 300 μM
Protocol: The anti-angiogenic potential of DHPMs was tested using an in vitro Angiogenesis Assay Kit according to the manufacturer’s instructions. […] These plates were incubated for 11 hours at 37°C, in 5% CO2. Wells were subsequently photographed using an inverted light microscope at 20x magnification and tube formation analyzed. Seven fields per group of 3 independent experiments were quantified by pattern recognition according to manufacturer’s instructions.

[12] = MCF-7, 24 h, 4m 1.0 mM, 4bt 0.8 mM, 4p 0.4 mM, 4bc 1.0 mM, 4x 0.8 mM
[13] = all concentrations tested 100 μM – 1.00 mM, 72 h

Row | SMILES | Monoastral Spindle (%) 24 h [4, 12] [%] | Bipolar Spindle (%) 24 h ([4]; MCF-7, 24 h) [%] | Bipolar Spindle (%) 48 h [4] [%] | Monoastral Spindle (%) 48 h [4] [%] | CD44-/CD24- subpopulation, MCF-7 (mean ± SEM) [5] [%] | CD44+/CD24+ subpopulation, MCF-7 (mean ± SEM) [5] [%] | CD44-/CD24+ subpopulation, MCF-7 (mean ± SEM) [5] [%] | CD44+/CD24- subpopulation, MCF-7 (mean ± SEM) [5] [%] | CD44-/CD24- subpopulation, MDA-MB-231 (mean ± SEM) [6] [%] | CD44-/CD24+ subpopulation, MDA-MB-231 (mean ± SEM) ([6]; concentrations as E32) [%] | CD44+/CD24+ subpopulation, MDA-MB-231 (mean ± SEM) ([6]; concentrations as E32) [%] | other results
1 | CCOC(=O)C1=C(C)NC(=S)NC1c1cccc(O)c1 (stereo not shown) [Monastrol, reference compound] | 97.66 | 2.33 | 8 | 92 | 1.64 ± 0.43 | 29.53 ± 5.30 | 68.56 ± 5.93 | 0.2400 ± 0.20 | 0.00 ± 0.003 | 0.007 ± 0.003 | 15.56 ± 6.96 | IC50 ([1]; MCF7, 72 h treatment, MTT): 110 µM; IC50 ([2]; MDA-MB-231, 72 h treatment, MTT): 114 µM; Maximum non-cytotoxic concentration to normal cells ([3]; human, 72 h): 1.0 mM; CD44+/CD24- subpopulation, MDA-MB-231 (mean ± SEM) ([6]; concentrations as E32, untreated control 98.45 ± 0.47): 84.41 ± 6.97%
2 | CC1(C)CC(=O)C2=C(C1)NC(=S)NC2c1cccc(O)c1 (stereo not shown) [Compound 4bt, Dimethylenastron] | 99.35 | 0.65 | 20 | 80 | 3.09 ± 0.46 | 61.97 ± 19.91 | 34.92 ± 19.45 | 0.005 ± 0.005 | 0.01 ± 0.00 | 0.0 ± 0.0 | 52.14 ± 10.60 | IC50 ([1]; MCF7, 72 h): 127 µM; Effect on cell viability, MCF-7 [1, 13]: significant decrease in cell viability; IC50 ([2]; MDA-MB-231, 72 h): 17.9 µM; Effect on cell viability, MDA-MB-231 [2, 13]: significant decrease in cell viability; Maximum non-cytotoxic concentration to normal cells ([3]; fibroblasts, 72 h treatment, MTT): 0.8 mM; Mitotic spindle / microtubule organization (α-tubulin immunostaining) [4, 12]: caused monoastral spindle formation; Cell death by apoptosis, % of MCF-7 cell population [7]: 39%; Cell death by apoptosis, % of MDA-MB-231 cell population [8]: 83%; Cell cycle effect, MCF-7, 48 h [9]: decrease of cells in G2/M and an increase of cells in S phase; Morphological alterations, MCF-7 [10]: produced the same results; HUVEC tube formation (pattern recognition / morphology) [11]: more pronounced anti-angiogenic morphological aspect
